From patent US20070093513A1, “Agent for repairing corneal perception” (SENJU PHARMACEUTICAL CO., LTD., priority 2003, published 2007)
Where a name gives a salt, the structure may show the parent alone.

Columns and labels:
[1] = system: cultured rabbit trigeminal nerve cells; assay: Neurite outgrowth promoting effect in cultured rabbit trigeminal nerve cells (Experimental Example 2); assay type: cell-based, Japanese White Rabbits; settings: cultured for 48 hrs, non-addition group about 31%
Source text: Japanese White Rabbits (2-3 days old) purchased from KITAYAMA LABES Co., Ltd. were used.
As a ROCK inhibitor, 2-chloro-6,7-dimethoxy-N-[5-1H-indazolyl]quinazoline-4-amine, N-(1-benzyl-4-piperidinyl)-1H-indazole-5-amine dihydrochloride, 4-[2-(2,3,4,5,6-pentafluorophenyl)acryloyl]cinnamic acid and fasudil hydrochloride were used.
2-Chloro-6,7-dimethoxy-N-[5-1H-indazolyl]quinazoline-4-amine (hereinafter to be indicated as compound 1) used was synthesized according to Reference Example 1. N-(1-benzyl-4-piperidinyl)-1H-indazole-5-amine dihydrochloride.½ hydrate (hereinafter to be indicated as compound 2) used was synthesized according to Reference Example 2. 4-[2-(2,3,4,5,6-Pentafluorophenyl)acryloyl]cinnamic acid (hereinafter to be indicated as compound 3) used was synthesized according to Reference Example 3. Fasudil hydrochloride (hereinafter to be indicated as compound 4) used was a commercially available fasudil hydrochloride hydrate injection, “Eril Injection 30 mg” (manufactured by Asahi Kasei Corporation).
Rabbit trigeminal nerve cells were isolated in the same manner as in Experimental Example 1. For cell culture, a culture medium obtained by adding B27 Supplement (manufactured by GIBCO; final concentration 2% v/v) and L-glutamine (manufactured by GIBCO; concentration 1 mM) to neurobasal culture medium (manufactured by GIBCO) was used. A circular cover glass (diameter 12 mm; manufactured by SUMITOMO BAKELITE) after polylysine/laminin coating was placed in each well of a 24 well plate, and cells were plated on the cover glass at about 3×10^3 cells/well. After cell adhesion to the cover glass (about 2 hrs), the above-mentioned culture medium was changed to a culture medium containing each test substance (compound 1, final concentration 10 μM; compound 2, final concentration 10 μM; compound 3, final concentration 1 μM; compound 4, final concentration 10 μM) and the cells were cultured for 48 hrs. […]
A specimen fixed using an anti-neurofilament 200 antibody (manufactured by Sigma) that recognize neurofilaments, which are intermediate filaments specific to nerve cell, and a fluorescent secondary antibody (manufactured by Molecular Probes) reactive therewith was fluorescence stained and the stained cells were detected using a fluorescence microscope. […] The whole cell number (t) of each image was counted. Along therewith, the length of cell neurite and the diameter of cell body were measured using an image analysis software (MacSCOPE, manufactured by MITANI CO.), and the cells having a neurite with a length of not less than twice the diameter of the cell body were counted as neuritogenetic cell (a). Then the rate (%) of the total neuritogenetic cell number (a1+a2+ . . . +an=Σa) to the total cell number (Σt) was calculated. […]

SMILES | melting point [°C] | rate of the neuritogenetic cells relative to the total cells ([1]; final concentration 10 μM) | rate of the neuritogenetic cells relative to the total cells ([1]; final concentration 1 μM)
COc1cc2nc(Cl)nc(Nc3ccc4[nH]ncc4c3)c2cc1OC [compound 1, 2-Chloro-6,7-dimethoxy-N-[5-1H-indazolyl]quinazoline-4-amine] | 278.7 to 283.8 | about 41% | –
Cl.Cl.Cl.Cl.O.c1ccc(CN2CCC(Nc3ccc4[nH]ncc4c3)CC2)cc1.c1ccc(CN2CCC(Nc3ccc4[nH]ncc4c3)CC2)cc1 [compound 2, N-(1-benzyl-4-piperidinyl)-1H-indazole-5-amine dihydrochloride.½ hydrate] | – | about 57% | –
C=C(C(=O)c1ccc(C=CC(=O)O)cc1)c1c(F)c(F)c(F)c(F)c1F [compound 3, 4-[2-(2,3,4,5,6-Pentafluorophenyl)acryloyl]cinnamic acid] | – | – | about 51%
O=S(=O)(c1cccc2cnccc12)N1CCCNCC1 [compound 4, Fasudil hydrochloride] | – | about 70% | –
